From BindingDB's records for doi:10.1021/acs.jmedchem.0c01420 (Ochanomizu University, 2021)

Test: Agonist activity at VDR in human HL-60 cells assessed as induction of cell differentiation of promyelocytes to monocytes after 4 days by NBT reduction assay

Compound: C[C@H](CCC(=O)O)[C@H]1CC[C@H]2[C@@H]3CC[C@@H]4C[C@@H](CC(C)(C)O)CC[C@]4(C)[C@H]3CC[C@]12C
- EC50: 36 nM

Compound: C[C@H](CCC(=O)O)[C@H]1CC[C@H]2[C@@H]3CC[C@@H]4C[C@H](CC(C)(C)O)CC[C@]4(C)[C@H]3CC[C@]12C
- EC50: 0.53 nM
